From ChEMBL document CHEMBL3244033, “Potential antitumor agents. 21. Dialkanolamine dialkanesulfonic esters” (J Med Chem, 1977) come the findings set out here.

The test system of the first data set is L1210. Nature of the data set: Antileukemic activity against mouse L1210 cells allografted in ip dosed C3H/HeJ female X DBA2/J male F1 hybrid mouse assessed as maximal increase in host life span at LD10 administered as single dose 24 hrs after tumor implantation. The class given is functional.
Details: not given
For the molecule `CS(=O)(=O)OCCCNCCCOS(C)(=O)=O.Cl`, the Activity turned out to be 84%.
In the case of `CS(=O)(=O)OCCNCCOS(C)(=O)=O.Cl`, the Activity is listed as above 25%.
For `CCS(=O)(=O)OCCNCCOS(=O)(=O)CC.Cl`, the Activity is 26%.
On to `CCCS(=O)(=O)OCCNCCOS(=O)(=O)CCC.Cl`, for which the Activity was 57%.
Regarding `CCCCS(=O)(=O)OCCNCCOS(=O)(=O)CCCC.Cl`, the Activity is 105%.
As to `CCCCCS(=O)(=O)OCCNCCOS(=O)(=O)CCCCC.Cl`, the Activity came out at 78%.
As to `CCS(=O)(=O)OCCCNCCCOS(=O)(=O)CC.Cl`, the Activity was determined as 100%.
`CCCS(=O)(=O)OCCCNCCCOS(=O)(=O)CCC.Cl`: the Activity came to 75%.
On to `CS(=O)(=O)OCCCCCCNCCOS(C)(=O)=O.Cl`, for which the Activity amounted to 91%.
For the molecule `CCS(=O)(=O)OCCCCCCNCCOS(=O)(=O)CC.Cl`, the Activity is recorded as 83%.
In the case of `CCCS(=O)(=O)OCCCCCCNCCOS(=O)(=O)CCC.Cl`, the Activity is given as 59%.
Regarding `CCCCS(=O)(=O)OCCNCCCCCCOS(=O)(=O)CCC.Cl`, the Activity is on record as 35%.
Same read-out and setting: the figure for `CS(=O)(=O)OCCCCCCNCCCOS(C)(=O)=O.Cl` is 107%.
Still for that read-out and setting: the figure for `CCS(=O)(=O)OCCCCCCNCCCOS(=O)(=O)CC.Cl` is 78%.
In the case of `CCCS(=O)(=O)OCCCCCCNCCCOS(=O)(=O)CCC.Cl`, the Activity was 45%.

System in another data set: not listed separately
Description: Lipophilic-hydrophilic balance, Rm of the compound using mixture of glycerol, i-BuOH and 1-pentanol plus methanesulfonic acid as solvent system by acidic reversed-phase chromatography. The class given is physicochemical.
Details: not given
Turning to `CS(=O)(=O)OCCCNCCCOS(C)(=O)=O.Cl`, the Rm is listed as -0.88.
Take `CS(=O)(=O)OCCNCCOS(C)(=O)=O.Cl`: the Rm is on record as -1.13.
For the molecule `CCS(=O)(=O)OCCNCCOS(=O)(=O)CC.Cl`, the Rm is recorded as -0.64.
`CCCS(=O)(=O)OCCNCCOS(=O)(=O)CCC.Cl`: the Rm is given as -0.1.
Consider `CCCCS(=O)(=O)OCCNCCOS(=O)(=O)CCCC.Cl`, for which the Rm was 0.37.
Take `CCCCCS(=O)(=O)OCCNCCOS(=O)(=O)CCCCC.Cl`: the Rm is 0.76.
Still for that read-out and setting: the same measure for `CCS(=O)(=O)OCCCNCCCOS(=O)(=O)CC.Cl`: -0.47; for `CCCS(=O)(=O)OCCCNCCCOS(=O)(=O)CCC.Cl`: 0.09.
With `CCCCS(=O)(=O)OCCCNCCCOS(=O)(=O)CCCC.Cl`, the Rm came to 0.45.
On the same count and under the same terms, the same measure for `CS(=O)(=O)OCCCCCCNCCOS(C)(=O)=O.Cl`: -0.71; for `CCS(=O)(=O)OCCCCCCNCCOS(=O)(=O)CC.Cl`: -0.19; for `CCCS(=O)(=O)OCCCCCCNCCOS(=O)(=O)CCC.Cl`: 0.27.
On the same count and under the same terms, the same measure for `CCCCS(=O)(=O)OCCNCCCCCCOS(=O)(=O)CCC.Cl`: 0.51.
Same read-out and setting: the figure for `CS(=O)(=O)OCCCCCCNCCCOS(C)(=O)=O.Cl` is -0.65.
For the molecule `CCS(=O)(=O)OCCCCCCNCCCOS(=O)(=O)CC.Cl`, the Rm was -0.05.
Turning to `CCCS(=O)(=O)OCCCCCCNCCCOS(=O)(=O)CCC.Cl`, the Rm was determined as 0.32.

The test system of the next data set is Mus musculus. Nature of the data set: Acute toxicity in ip dosed C3H/HeJ female X DBA2/J male F1 hybrid mouse allografted with mouse L1210 cells assessed as mortality administered as single dose. The class given is organism-based. The settings on record: in vivo.
With `CS(=O)(=O)OCCCNCCCOS(C)(=O)=O.Cl`, the LD10 was 170 mg/kg.
As to `CS(=O)(=O)OCCNCCOS(C)(=O)=O.Cl`, the LD10 was 25 mg/kg.
Regarding `CCS(=O)(=O)OCCNCCOS(=O)(=O)CC.Cl`, the LD10 was 35 mg/kg.
Take `CCCS(=O)(=O)OCCNCCOS(=O)(=O)CCC.Cl`: the LD10 was 210 mg/kg.
Same read-out and setting: the same measure for `CCCCS(=O)(=O)OCCNCCOS(=O)(=O)CCCC.Cl`: 750 mg/kg.
Consider `CCCCCS(=O)(=O)OCCNCCOS(=O)(=O)CCCCC.Cl`, for which the LD10 was found to be 520 mg/kg.
Same read-out and setting: the figure for `CCS(=O)(=O)OCCCNCCCOS(=O)(=O)CC.Cl` is 410 mg/kg; for `CCCS(=O)(=O)OCCCNCCCOS(=O)(=O)CCC.Cl` it is 285 mg/kg; for `CS(=O)(=O)OCCCCCCNCCOS(C)(=O)=O.Cl` it is 185 mg/kg.
In the case of `CCS(=O)(=O)OCCCCCCNCCOS(=O)(=O)CC.Cl`, the LD10 was determined as 285 mg/kg.
The same measure, in the same setting: the figure for `CCCS(=O)(=O)OCCCCCCNCCOS(=O)(=O)CCC.Cl` is 225 mg/kg.
Consider `CCCCS(=O)(=O)OCCNCCCCCCOS(=O)(=O)CCC.Cl`, for which the LD10 was 200 mg/kg.
The same measure, in the same setting: the same measure for `CS(=O)(=O)OCCCCCCNCCCOS(C)(=O)=O.Cl`: 33 mg/kg.
On to `CCS(=O)(=O)OCCCCCCNCCCOS(=O)(=O)CC.Cl`, for which the LD10 was determined as 61 mg/kg.
For the molecule `CCCS(=O)(=O)OCCCCCCNCCCOS(=O)(=O)CCC.Cl`, the LD10 is 137 mg/kg.

System in another data set: not listed separately
Description: Dissociation constant, pKa of the compound. In kind it is physicochemical.
Details: not given
In turn, `CS(=O)(=O)OCCCNCCCOS(C)(=O)=O.Cl` returned a pKa of 8.77.

By pKa is commonly meant the pH at which an ionisable group is half protonated. Low values mean a stronger acid or weaker base, high ones a weaker acid or stronger base.
